Test results reported in patent US5278326A, “Substituted beta-ketoamide ACAT inhibitors” (Warner-Lambert Company, priority 1991, dated 1994).

target: T1, acyl-CoA: cholesterol acyltransferase (ACAT) (Oryctolagus cuniculus, UniProt G1SFD9); assay: in vitro inhibition of ACAT (radiolabeled cholesterol oleate formed from radiolabeled oleic acid, rabbit intestinal microsomes); format: biochemical; conditions: tissue preparation containing rabbit intestinal microsomes, read-out: IC50 (concentration of test compound required to inhibit the activity of the enzyme by 50%)
T1 construct: in a tissue preparation containing rabbit intestinal microsomes; from tissue; host or cells: rabbit intestinal microsomes
T1 sequence (G1SFD9 1-524): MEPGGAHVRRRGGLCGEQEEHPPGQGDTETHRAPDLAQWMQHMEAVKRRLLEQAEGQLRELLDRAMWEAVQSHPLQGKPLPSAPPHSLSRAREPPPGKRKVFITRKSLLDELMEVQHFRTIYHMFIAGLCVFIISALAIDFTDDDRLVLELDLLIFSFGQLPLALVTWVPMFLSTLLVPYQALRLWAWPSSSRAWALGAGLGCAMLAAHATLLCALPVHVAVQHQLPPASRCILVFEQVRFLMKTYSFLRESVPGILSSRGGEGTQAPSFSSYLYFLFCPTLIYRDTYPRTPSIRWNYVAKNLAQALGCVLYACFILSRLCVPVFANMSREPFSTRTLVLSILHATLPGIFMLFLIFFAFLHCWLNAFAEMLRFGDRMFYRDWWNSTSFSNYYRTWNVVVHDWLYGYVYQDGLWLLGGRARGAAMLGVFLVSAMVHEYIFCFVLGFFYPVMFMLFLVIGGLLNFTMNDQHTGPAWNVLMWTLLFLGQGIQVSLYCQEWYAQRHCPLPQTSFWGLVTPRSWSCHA
Description: The ability of representative compounds of the present invention to inhibit ACAT was measured using an in vitro test more fully described in F. J. Field and R. G. Salone, Biochemica et Biophysica 712:557-570 (1982). The test assesses the ability of a test compound to inhibit the acylation of cholesterol by oleic acid by measuring the amount of radiolabeled cholesterol oleate formed from radiolabeled oleic acid in a tissue preparation containing rabbit intestinal microsomes.
The data appear in Table 1 where they are expressed as IC50 values; i.e., the concentration of test compound required to inhibit the activity of the enzyme by 50%.

Row | SMILES | IC50
1 | CCCCCCCCNC(=O)CC(=O)c1ccc(F)cc1F [Example 12, 2,4-difluoro-N-octyl-β-oxo-benzenepropanamide] | > 1000 nM
2 | CC(C)c1cccc(C(C)C)c1NC(=O)CC(=O)CCCCCCCCCCCO [Example 7, N-[2,6-bis(1-methylethyl)phenyl]-14-hydroxy-3-oxo-tetradecanamide] | 230 nM
3 | CC(C)c1cccc(C(C)C)c1NC(=O)CC(=O)CCCCCCCCCCCOC1CCCCO1 (centres unmarked) [Example 6, N-[2,6-bis(1-methylethyl)phenyl]-3-oxo-14-[(tetrahydro-2H-pyran-2-yl)oxy]-tetradecanamide] | 57 nM
4 | CCCCCCCCNC(=O)CC(=O)c1c2ccccc2cc2ccccc12 [Example 13, N-octyl-β-oxo-9-anthracenepropanamide] | > 1000 nM
5 | CCCCCCCCCCCC(=O)C(C)(C)C(=O)N(C)c1c(OC)cc(OC)cc1OC [Example 10, N,2,2-trimethyl-3-oxo-N-(2,4,6-trimethoxyphenyl)-tetradecanamide] | > 1000 nM
